Test results reported in paper PMC10126473 (Frontiers in Pharmacology, 2023).

Test: Mouse PK and tissue distribution study (non-compartmental analysis)
Conditions: male, C57BL/6, mouse, in vivo; for Cmax: Cmax Obs; for Tmax: Tmax Obs
Procedure: The in-life study (Animal Study Protocol Number: NIH ORS-51) was conducted at the NIH Animal Facility by the Division of Veterinary Resources (DVR, Bethesda, MD). In this study, 25–35 g male C57BL/6 mice (Charles River Laboratories, Frederick, MD) were used. For the IV groups, 66 mice (33 mice per dosing group, 3 mice per timepoint) were used for a single bolus IV dose of 3 or 10 mg/kg of PDN via tail vein injection. […] The IV and PO doses were selected to obtain a complete concentration profile in plasma and tissues, based on a preliminary study. Animals were not fasted in this study. […] All dosing solutions were freshly prepared on the day of dosing. At designated time points, blood samples were collected, and mice were euthanized with CO2 in accordance with NIH ARAC Guidelines after blood collection. The death was ensured by cervical dislocation or transthoracic puncture. Lung, liver, adipose, brain, heart, small intestine, kidney, skeletal muscle, and spleen samples were obtained from mice. […] Tissue samples were rinsed with cold saline, dried on filtrate paper, weighed, and snap frozen by placing into dry ice after collection. All samples were stored at −80°C until the analysis. All blood samples were collected in K2EDTA tubes and centrifuged at 3000 g for 10 min at 4°C to obtain plasma. Plasma samples were transferred to tubes preloaded with NaF (final concentration at 5 mM in 200 µL plasma) and stored at −80°C until analysis.
For fat tissue, an additional 3-fold volume of acetonitrile was added to the water homogenate and was vortexed in a shaker for another 30 min.
A 10 μ aliquot of samples, blank controls (blank plasma or tissue homogenates), quality controls (QC), and standards were added into 200 μ acetonitrile solution with 100 ng/mL tolbutamide (internal standard, IS). All samples were then thoroughly shaken for 5 min to precipitate proteins. The samples were centrifuged at 3000 rpm and 4°C for 30 min. The supernatant was injected for UPLC-MS/MS analysis.
The mobile phase consisted of 0.1% formic acid in water (A) and 0.1% formic acid in acetonitrile (B), the flow rate was 600 μL/min. […] All analyses were carried out using a Waters Acquity I-Class UPLC interfaced with a Waters Xevo TQ-S mass spectrometer. The mass spectrometer multiple reaction monitoring (MRM) experiment was operated with an ESI source at negative mode with spray voltage of 1 kV, and temperature of 600°C. Both Q1 and Q3 were set at unit resolution. […] The correlation coefficients of the calibration curves were all greater than 0.99. […] The linear range, precision and accuracy of QCs in various tissues and plasma are shown in Supplementary Table S1 and Supplementary Table S2.
The area under the concentration vs. time curve (AUC) was calculated using the linear trapezoidal method. The terminal rate constant (λ) was obtained from the slope of at least three data points of the apparent terminal phase of the log linear concentration vs. time curve. AUC0–∞ was estimated as the sum of the AUC0–t (where t is the time of the last measurable concentration) and Ct/λ. […] Bioavailability (F) was calculated using ratios of dose-normalized AUC of PO and IV administration.

[1] = po, 10 mg/kg, mice, PO 10 mg/kg PDN, adipose
[2] = po, 10 mg/kg, mice, PO 10 mg/kg PDN, brain
[3] = po, 10 mg/kg, mice, PO 10 mg/kg PDN, heart
[4] = po, 10 mg/kg, mice, PO 10 mg/kg PDN, intestine

Q: For `O=C(Nc1ccc([N+](=O)[O-])cc1Cl)c1cc(Cl)ccc1OC(=O)N1CCNCC1` [PDN], which Kp is on record?
A: Its Kp is 8 to 44.

Q: What about the AUC(0-inf) (iv, 3 mg/kg) of the same compound?
A: The AUC(0-inf) was 1190 ng·h/mL.

Q: And the clearance (iv, 3 mg/kg, CLp Obs, mice, IV 3 mg/kg PDN, plasma)?
A: Its clearance is 1.05 mL/min.

Q: What about the Vd (iv, 3 mg/kg, Vdss Obs, mice, IV 3 mg/kg PDN, plasma) of the same compound?
A: Its Vd is 0.28 L.

Q: What about the half-life (iv, 3 mg/kg, t1/2 Obs, mice, IV 3 mg/kg PDN, adipose) of the same compound?
A: The half-life was 2.78 h.

Q: And the half-life (iv, 3 mg/kg, t1/2 Obs, mice, IV 3 mg/kg PDN, brain)?
A: The half-life was 2.23 h.

Q: And the half-life (iv, 3 mg/kg, t1/2 Obs, mice, IV 3 mg/kg PDN, heart)?
A: Its half-life is 1.71 h.

Q: What about the half-life (iv, 3 mg/kg, t1/2 Obs, mice, IV 3 mg/kg PDN, intestine) of the same compound?
A: The half-life was 2.69 h.

Q: And the half-life (iv, 3 mg/kg, t1/2 Obs, mice, IV 3 mg/kg PDN, kidney)?
A: Its half-life is 3.1 h.

Q: And the half-life (iv, 3 mg/kg, t1/2 Obs, mice, IV 3 mg/kg PDN, lung)?
A: Its half-life is 3.09 h.

Q: And the half-life (iv, 3 mg/kg, t1/2 Obs, mice, IV 3 mg/kg PDN, muscle)?
A: The half-life was 1.91 h.

Q: What about the half-life (iv, 3 mg/kg, t1/2 Obs, mice, IV 3 mg/kg PDN, plasma) of the same compound?
A: Its half-life is 3.07 h.

Q: What about the half-life (iv, 3 mg/kg, t1/2 Obs, mice, IV 3 mg/kg PDN, spleen) of the same compound?
A: The half-life was 3.44 h.

Q: What about the AUC(0-inf) (iv, 10 mg/kg) of the same compound?
A: The AUC(0-inf) was 4100 ng·h/mL.

Q: And the clearance (iv, 10 mg/kg, CLp Obs, mice, IV 10 mg/kg PDN, plasma)?
A: The clearance was 1.02 mL/min.

Q: And the Vd (iv, 10 mg/kg, Vdss Obs, mice, IV 10 mg/kg PDN, plasma)?
A: Its Vd is 0.31 L.

Q: What about the half-life (iv, 10 mg/kg, t1/2 Obs, mice, IV 10 mg/kg PDN, brain) of the same compound?
A: Its half-life is 3.39 h.

Q: And the half-life (iv, 10 mg/kg, t1/2 Obs, mice, IV 10 mg/kg PDN, heart)?
A: Its half-life is 2.86 h.

Q: And the half-life (iv, 10 mg/kg, t1/2 Obs, mice, IV 10 mg/kg PDN, intestine)?
A: Its half-life is 3.78 h.

Q: And the half-life (iv, 10 mg/kg, t1/2 Obs, mice, IV 10 mg/kg PDN, kidney)?
A: Its half-life is 4.78 h.

Q: What about the half-life (iv, 10 mg/kg, t1/2 Obs, mice, IV 10 mg/kg PDN, liver) of the same compound?
A: Its half-life is 3.6 h.

Q: What about the half-life (iv, 10 mg/kg, t1/2 Obs, mice, IV 10 mg/kg PDN, lung) of the same compound?
A: The half-life was 3.51 h.

Q: What about the half-life (iv, 10 mg/kg, t1/2 Obs, mice, IV 10 mg/kg PDN, muscle) of the same compound?
A: Its half-life is 4.65 h.

Q: And the half-life (iv, 10 mg/kg, t1/2 Obs, mice, IV 10 mg/kg PDN, plasma)?
A: Its half-life is 3.52 h.

Q: What about the half-life (iv, 10 mg/kg, t1/2 Obs, mice, IV 10 mg/kg PDN, spleen) of the same compound?
A: Its half-life is 3.24 h.

Q: And the half-life (iv, 10 mg/kg, t1/2 in all other tissues, mice, IV 3 and 10 mg/kg PDN)?
A: The half-life was 1.7 to 4.8 h.

Q: What about the half-life (iv, 10 mg/kg, terminal t1/2 in plasma, mice, IV 3 and 10 mg/kg PDN) of the same compound?
A: The half-life was 3.1 to 3.5 h.

Q: And the clearance (iv, 10 mg/kg, total plasma clearance (CLp), mice, IV 3 and 10 mg/kg PDN)?
A: The clearance was 1.02 to 1.05 mL/min.

Q: What about the Vd (iv, 10 mg/kg, volume of distribution at steady-state (Vdss), mice, IV 3 and 10 mg/kg PDN) of the same compound?
A: The Vd was 0.28 to 0.31 L.

Q: And the AUC(0-inf) (po, 10 mg/kg)?
A: The AUC(0-inf) was 3520 ng·h/mL.

Q: And the CL/F (po, 10 mg/kg)?
A: Its CL/F is 1.18 mL/min.

Q: What about the Vd/F (po, 10 mg/kg) of the same compound?
A: The Vd/F was 0.33 L.

Q: And the Cmax [1]?
A: Its Cmax is 547 ng/g.

Q: And the Cmax [2]?
A: Its Cmax is 715 ng/g.

Q: And the Cmax [3]?
A: The Cmax was 3040 ng/g.

Q: What about the Cmax [4] of the same compound?
A: The Cmax was 15400 ng/g.

Q: And the Cmax (po, 10 mg/kg, mice, PO 10 mg/kg PDN, kidney)?
A: The Cmax was 5860 ng/g.

Q: And the Cmax (po, 10 mg/kg, mice, PO 10 mg/kg PDN, liver)?
A: Its Cmax is 240 ng/g.

Q: And the Cmax (po, 10 mg/kg, mice, PO 10 mg/kg PDN, lung)?
A: The Cmax was 22600 ng/g.

Q: What about the Cmax (po, 10 mg/kg, mice, PO 10 mg/kg PDN, muscle) of the same compound?
A: The Cmax was 1120 ng/g.

Q: What about the Cmax (po, 10 mg/kg, mice, PO 10 mg/kg PDN, plasma) of the same compound?
A: The Cmax was 606 ng/mL.

Q: And the Cmax (po, 10 mg/kg, mice, PO 10 mg/kg PDN, spleen)?
A: The Cmax was 8080 ng/g.

Q: What about the bioavailability (po, 10 mg/kg, F (bioavailability) Obs, mice, PO 10 mg/kg PDN) of the same compound?
A: The bioavailability was 85.6%.

Q: And the Tmax [1]?
A: Its Tmax is 1.5 h.

Q: What about the Tmax [2] of the same compound?
A: The Tmax was 1.5 h.

Q: And the Tmax [3]?
A: The Tmax was 1.5 h.

Q: And the Tmax [4]?
A: Its Tmax is 0.167 h.
